Test results published in patent US20070244076A1, “Site and Rate Selective Prodrug Formulations of D609 with Antioxidant and Anticancer Activity” (priority 2003, published 2007).
Marks after values point to notes of the source that are not given here.

Tests used:
[1] = tested on: U937 cells; assay: MTT cell viability, U937 cells; type: cell-based, Human; settings: for LD50: 48 h
Method: Cell viability assay: The MTT assay was used to quantify viable U937 cells (Hansen et al., 1989). U937 cells were harvested, washed and resuspended in complete medium at a concentration of 5×10^5 cells per ml. Aliquots (100 μl) of the cell suspension were added to wells of a 96-well microtiter plate with the addition of 100 μl of complete medium (control) or various concentrations of D609 or a D609 prodrug (diluted in complete medium). After 48 h incubation, the plates were centrifuged to remove the supernatants from the culture, and 50 μl of MTT at a concentration of 5 mg/ml in phosphate-buffered saline (PBS) was added to each well. The plates were incubated for 4 h at 37° C. to allow for the formation of a colored formazan. The formazan was solubilized by lysing the cells with 100 μl of lysis buffer containing 20 (w/v) % dodecylsulfate and 50 (v/v) % N,N-dimethyl formamide, pH 4.7. Absorbance of the formazan was measured at 595 nm using a Vmax plate reader (Molecular Devices, Sunnyvale, Calif.). The viability of the cells was expressed as a percent of control calculated by the formula Ad/Ac×100, where Ad and Ac, represent the absorbance of drug-treated and untreated control cells, respectively, and expressed as a percentage of control.
In this study, p-nitrophenyl-phosphorylcholine (pNPP, 40 mM) was incubated with 2 U/ml phospholipase C (Type XI from B. cereus) in the presence or absence of various concentrations of inhibitors for 2 hrs at 37° C. The amount of the cleaved substrate pNPP was quantified by determination of the optical density at 410 nm using an ELISA reader. The results are expressed as percent of vehicle control and presented as means±SEM (n=3) (FIG. 9A). NBD-C6-ceramide and PC were incubated with U937 cell lysates containing 50 μg protein in the presence or absence of various concentrations of inhibitors for 30 min at 30° C. The formation of NBD-C6-sphingomyelin as analyzed by TLC and quantified by determination of the fluorescent intensity of NBD-C6-sphingomyelin using a phosphorimager. The results are expressed as percent of vehicle control (FIG. 9B). […]

[2] = tested on: sphingomyelin synthase (SMS); assay: Cellular SMS activity in U937 cells treated with drug; type: cell-based, Human; settings: for inhibition of SMS activity: 177 μM, 0.5, 1 and 2 h
Method: Analysis of sphingomyelin synthase (SMS) activity: U937 cells (2×10^6/ml) were cultured with vehicle (0.5% DMSO) or 177 μM D609 or prodrug 2. After 0.5, 1 and 2 h incubation, the cells were harvested, washed and then homogenized in ice-cold lysis buffer (250 mM sucrose; 5 mM HEPES, pH 7.4; 1 mM phenylmethylsulfonyl fluoride; and 20 μg/ml each of chymostatin, leupeptin, antipain, and pepstatin) by 15 passages through a 27-gauge×0.5-inch needle. The cell lysates were first centrifuged at 1000×g for 10 min at 4° C. to remove all the unbroken cells and nuclei. The resultant supernatants were quantified for protein concentration using the Bio-Rad protein assay reagent (Bio-Rad, Hercules, Calif.) and assayed for SMS activity as follows: aliquots of the cell lysates containing 50 μg protein were preincubated for 10 min at 30° C. in a total volume of 50 μl of incubation buffer (50 mM Tris-HCl, pH 7.4; 25 mM KCl; and 0.5 mM EDTA). The reaction was started by addition of 2 nmol NBD C6-ceramide and 12 nmol PC to give a final volume of 50 μl and incubated for 30 min. The reaction was stopped by addition of 200 μl chloroform/methanol (1:1, v/v); the mixture was vortexed and kept on ice. The chloroform/methanol fraction was isolated, and the lipids were resolved by TLC (silica gel) in chloroform:methanol:15 mM CaCl2 (90:52.5:12) (Luberto and Hannun, 1998; Meng et al., 2004). The formation of NBD-C6-sphingomyelin was quantified by determination of the fluorescent intensity of NBD-C6-sphingomyelin using a phosphoimager. Values for blanks were subtracted from total values of NBD-C6-sphingmyelin to yield the amount of NBD-C6-sphingmyelin produced in each sample.
To validate if inhibition of SMS may mediate D609-induced tumor cell death, the cellular level of SMS activity in U937 cells treated with vehicle or D609 were studied. […] NBD-C6-ceramide and PC were incubated with the cell lysates containing 50 μg proteins for 30 min at 30° C. The formation of NBD-C6-sphingomyelin was analyzed by TLC and quantified by determination of the fluorescent intensity of NBD-C6-sphingomyelin using a phosphoimager. The results, shown in FIGS. 10B-10D, are expressed as percent of the control cultures with vehicle and presented as means±SEM (n=3). […] The levels of ceramide (FIG. 10B) and DAG (FIG. 10C) were analyzed by the DAG kinase assay, normalized to the levels of cellular phospholipid and expressed as pmole/nmole phophate (pi) or the ratio of ceramide and DAG (FIG. 10D). The results represent means±SEM (n=3).

[3] = tested on: Jurkat T-cell leukemia cells; assay: MTT cell viability, Jurkat cells; type: cell-based, human
[4] = tested on: ceramide levels in U937 cells; assay: Ceramide profile in U937 cells by ESI/MS/MS; type: cell-based, Human; settings: for increase in the level of total ceramide compared to vehicle-treated cells: 177 μM; for C14-Cer / C16-Cer / C18-Cer / C20-Cer / C24-Cer / C24:1-Cer / Total-Cer / dhC16-Cer: 177 µM, 4 h
Method: ESI/MS/MS analysis of ceramide was performed on a Thermo Finnigan TSQ 7000 triple quadruple mass spectrometer, operating in a multiple reaction monitoring (MRM) positive ionization mode. U937 cells (4×10^6/sample) were washed twice with PBS after they were harvested from cultures. […] An aliquot of the lipid extracts was taken for inorganic phosphate determination and the remainder was evaporated to dryness and reconstituted in 100 μL of methanol. The reconstituted samples were injected on the Surveyor/TSQ 7000 LC/MS system and gradient was eluted from the BDS Hypersil C8, 150×3.2 mm, 3 μm particle size column, with 1.0 mM methanolic ammonium formate/2 mM aqueous ammonium formate mobile phase system. Peaks for the target analytes and internal standards were collected and processed using the Xcalibur software system. Various species of ceramide were quantified using N-palmitoyl-D-erythro-sphingosine, C13 base (C13 ceramide) and N-heptadecanoyl-D-erythro-sphingosine, C18 base (C18 ceramide) as internal calibration standards. Calibration curves were constructed by plotting peak area ratios of synthetic standards corresponding to each target analyte with respect to the appropriate internal standard. The target analyte peak areas from the samples were similarly normalized to their respective internal standard then compared with the calibration curves using a linear regression model. The results are expressed as pmole ceramide/nmole lipid phosphate (Pi).

[5] = tested on: STM91-01 malignant rhabdoid tumor cells; assay: MTT cell viability, STM91-01 cells; type: cell-based, human

Row | Compound | LD50 [1] [µM] | inhibition of SMS activity [2] | LD50 [3] [µM] | increase in the level of total ceramide compared to vehicle-treated cells [4] | C14-Cer [4] | C16-Cer [4] | C18-Cer [4] | C20-Cer [4] | C24-Cer [4] | C24:1-Cer [4] | Total-Cer [4] | dhC16-Cer [4] | LD50 [5] [µM] | U937 cell death / cell viability ([1]; 48 hours) | IC50 ([2]; U937 cells cultured 2 hrs) [µM] | IC50, SMS activity ([2]; U937 cells cultured 2 hrs) [µg/mL]
1 | CCCC(=O)OCSC(=S)OC1CC2CC1C1CCCC21 (centres unmarked) [Prodrug 2, S-methyleneoxybutyryl D609] | 56.6 | significantly greater | 44.26 | 1.84 fold | 0.054^a,b pmole ceramide/nmole lipid Pi | 1.713^a pmole ceramide/nmole lipid Pi | 0.262^a pmole ceramide/nmole lipid Pi | 0.031^a pmole ceramide/nmole lipid Pi | 0.482^a pmole ceramide/nmole lipid Pi | 0.863^a,b pmole ceramide/nmole lipid Pi | 4.358^a,b pmole ceramide/nmole lipid Pi | 0.951^a,b pmole ceramide/nmole lipid Pi | 87.10 | – | – | –
2 | S=C([S-])OC1CC2CC1C1CCCC21.[K+] (centres unmarked) [Prodrug D609, Tricyclodecan-9-yl-xanthogenate] | 117 | time-dependent inhibition of SMS activity | 63.97 | about 1.61 fold | 0.038^a pmole ceramide/nmole lipid Pi | 1.612^a pmole ceramide/nmole lipid Pi | 0.213^a pmole ceramide/nmole lipid Pi | 0.036^a pmole ceramide/nmole lipid Pi | 0.416 pmole ceramide/nmole lipid Pi | 0.669^a pmole ceramide/nmole lipid Pi | 3.816^a pmole ceramide/nmole lipid Pi | 0.832^a pmole ceramide/nmole lipid Pi | 545.75 | induced significant cell death | ~90 | ~23.8
